The values below are quoted from earlier work in patent publication US8668932B2 (priority 2003, dated 2014).

The structures appear in SMILES notation.

Data set [1] concerns neuronal norepinephrine reuptake.
Data set [2] concerns alpha-1 adrenergic receptors.
Assay in data set [3]: not given
This is another data set of the same source.

The conditions of data set [4]: for elimination half-life (T½): in vivo.
In data set [5] the test system is neuronal serotonin reuptake.

Broadly, the pKa is the negative logarithm of the acid dissociation constant. Regarding `COc1ccc(C(CN(C)C)C2(O)CCCCC2)cc1.Cl` (racemic) [venlafaxine, (R/S)-1-[2-(dimethylamino)-1-(4-methoxyphenyl)ethyl]cyclohexanol hydrochloride], the plasma protein binding result is given as “approximately 30%”. The “inhibition of monoamine oxidase” value in the data set on monoamine oxidase is on record as “does not inhibit”. Moreover, the “affinity for histaminergic receptors” value in the data set with histaminergic receptors is given as “no significant affinity”. In addition, the “inhibition of dopamine reuptake” value with dopamine reuptake is “weak inhibitors”. Also, the “inhibition of neuronal norepinephrine reuptake” value in data set [1] is listed as “potent inhibitors”. In data set [2], the “affinity for alpha-1 adrenergic receptors” value is “no significant affinity”. Further, the pKa in data set [3] was 9.4. Further, the “elimination half-life (T½)” value in data set [4] was 5 ± 2 h. Also, the absolute bioavailability entry in data set [4] (oral) is on record as “about 45%”. In addition, in data set [4] (oral multiple dose therapy), the “time to steady-state concentrations” value is reported as “three”. The “fraction of dose absorbed” value in data set [4] (single oral dose, mass balance studies) was “at least 92%”.
`CN(C)CC(c1ccc(O)cc1)C1(O)CCCCC1` (stereo not drawn) [ODV, O-desmethylvenlafaxine]: the “inhibition of dopamine reuptake” value in the data set on dopamine reuptake is recorded as “weak inhibitors”. In addition, the “inhibition of neuronal norepinephrine reuptake” value in [1] is reported as “potent inhibitors”. Besides, in data set [5], the “inhibition of neuronal serotonin reuptake” value is recorded as “potent inhibitors”. Further, the “elimination half-life (T½)” value in data set [4] is 11 ± 2 h.
